The source of these data is patent US12011506B2, “Combination and uses and treatments thereof” (priority 2017, dated 2024).

Structures are written as SMILES.

Data set [1] is described as follows: Drug interaction trials: effect of dolutegravir on pharmacokinetics of coadministered drugs.
Description: (§1) These recommendations are based on either drug interaction trials of individual components or predicted interactions due to the expected magnitude of interaction and potential for serious adverse events or loss of efficacy.
For data set [2] the following is noted: human, in vivo.
The conditions of data set [3]: human, in vivo. This is another data set of the same source.
Data set [4] is described as follows: Established and other potentially significant drug interactions with JULUCA (effect on concentration). It counts as in vivo, human. As to conditions: based on drug interaction trials or predicted interactions.
Description: as §1
The nature of data set [5]: Pre-dose concentrations of DTG and RPV at Weeks 4, 24 and 48 or withdrawal in participants switching to DTG + RPV. It counts as in vivo, human.
Protocol: (§2) First set of participants (DTG 50 mg) received DIG 50 mg+RPV 25 mg together once daily, with a meal, in an open-label fashion up to Week 52 during early switch phase. Second set of participants (RPV 25 mg) also received DTG 50 mg+RPV 25 mg together once daily, with a meal, in an open-label fashion up to Week 52 during early switch phase.
(§3) First set of participants (DTG 50 mg) received DTG 50 mg+RPV 25 mg together once daily, with a meal, in an open-label fashion up to Week 52 during early switch phase. Second set of participants (RPV 25 mg) also received DTG 50 mg+RPV 25 mg together once daily, with a meal, in an open-label fashion up to Week 52 during early switch phase.
The nature of data set [6]: Pre-dose concentrations of DTG and RPV at Weeks 2, 4 and 8 in the first 20 participants who switch from EFV or NVP to DTG + RPV. It counts as in vivo, human.
Protocol: as §2, §3
Data set [7] is described as follows: Solubilities of rilpivirine hydrochloride in various aqueous media. It counts as physicochemical.
Data set [8] can be described thus: Solubilities of non-micronized dolutegravir sodium in various solvents at 25° C. Type of data set: physicochemical.
A short description of data set [9]: Drug interaction trials: effect of rilpivirine on pharmacokinetics of coadministered drugs. The note with it: No Effect = 1.00.
[10] abbreviates: metformin 500 mg twice daily, dolutegravir 50 mg once daily.
Where [11] appears, read: metformin 500 mg twice daily, dolutegravir 50 mg twice daily.

Consider `C#C[C@]1(O)CC[C@H]2[C@@H]3CCC4=CC(=NO)CC[C@@H]4[C@H]3CC[C@@]21CC` (mixture of isomers) [Norelgestromin], for which, in data set [1] (No Effect = 1.00), the “Cmax of coadministered drug, geometric mean ratio with/without dolutegravir” value is given as 0.89 and the “Cτ or C24 of coadministered drug, geometric mean ratio with/without dolutegravir” value came out at 0.93.

Regarding `CCCc1nn(C)c2c(=O)[nH]c(-c3cc(S(=O)(=O)N4CCN(C)CC4)ccc3OCC)nc12` [Sildenafil], in data set [2], the “Rilpivirine AUC, geometric mean ratio with/without coadministered drug” value was 0.98; the “Rilpivirine Cmax, geometric mean ratio with/without coadministered drug” value came to 0.92; the “Rilpivirine Cmin, geometric mean ratio with/without coadministered drug” value stood at 1.04. For the same compound, in data set [3], the “AUC of coadministered drug, geometric mean ratio with/without EDURANT” value (shortened to “AUC … geometric mean ratio with/without EDURANT”) is listed as 0.97 and the “Cmax of coadministered drug, geometric mean ratio with/without EDURANT” value (shortened to “Cmax … geometric mean ratio with/without EDURANT”) is 0.93.

With `CN(C)C(=N)N=C(N)N` [Metformin], in data set [3], the “AUC … geometric mean ratio with/without EDURANT” value stood at 0.97 and the “Cmax … geometric mean ratio with/without EDURANT” value came out at 1.02. Further, in [1] (setting [10]), the “AUC of coadministered drug, geometric mean ratio with/without dolutegravir” value is on record as 1.79 and the “Cmax of coadministered drug, geometric mean ratio with/without dolutegravir” value came out at 1.66. In data set [1] (setting [11]), the “AUC of coadministered drug, geometric mean ratio with/without dolutegravir” value was found to be 2.45 and the “Cmax of coadministered drug, geometric mean ratio with/without dolutegravir” value came out at 2.11. In data set [4], the “Effect on Concentration of the concomitant drug” value is “↑Metformin”.

As for `Cc1cc(/C=C/C#N)cc(C)c1Nc1ccnc(Nc2ccc(C#N)cc2)n1.Cl` [rilpivirine hydrochloride, 4-[[4-[[4-[(E)-2-cyanoethenyl]-2,6-dimethylphenyl]amino]-2-pyrimidinyl]amino]benzonitrile hydrochloride], the “Pre-dose concentration, Mean ± Standard Deviation” value turned out to be 92.046 ± 138.2880 µg/L in [5] (Example 3 (Table 10), Week 4); 87.875 ± 39.1412 µg/L in [5] (Example 3 (Table 10), Week 24); 95.405 ± 48.2978 µg/L in data set [5] (Example 3 (Table 10), Week 48); 79.504 ± 38.2305 µg/L in data set [5] (Example 5 (Table 13), Week 4); 90.207 ± 46.3022 µg/L in [5] (Example 5 (Table 13), Week 24); 91.799 ± 47.1371 µg/L in data set [5] (Example 5 (Table 13), Week 48). Moreover, the “Pre-dose concentration, Mean ± Standard Deviation” value is 65.360 ± 31.2965 µg/L in data set [6] (Example 3 (Table 10), Week 2); 67.374 ± 27.5663 µg/L in [6] (Example 3 (Table 10), Week 4); 77.416 ± 37.7129 µg/L in data set [6] (Example 3 (Table 10), Week 8); 57.342 ± 29.5436 µg/L in data set [6] (Example 5 (Table 13), Week 2); 78.338 ± 31.4825 µg/L in [6] (Example 5 (Table 13), Week 4); 79.652 ± 40.7546 µg/L in data set [6] (Example 5 (Table 13), Week 8). The “Descriptor (solubility)” value in data set [7] (0.01N HCl, pH 2.0) is given as “Practically insoluble (Practically insoluble or Insoluble: Parts of solvent required for 1 part of solute: greater than or equal to 10,000)”; in data set [7] (0.1N HCl, pH 1.1) it was “Practically insoluble (Practically insoluble or Insoluble: Parts of solvent required for 1 part of solute: greater than or equal to 10,000)”; in data set [7] (0.1N NaOH, pH 12.9), “Practically insoluble (Practically insoluble or Insoluble: Parts of solvent required for 1 part of solute: greater than or equal to 10,000)”; in data set [7] (Borate-KCl, pH 8.9) it was “Practically insoluble (Practically insoluble or Insoluble: Parts of solvent required for 1 part of solute: greater than or equal to 10,000)”; in data set [7] (Citrate-HCl, pH 2.0), “Practically insoluble (Practically insoluble or Insoluble: Parts of solvent required for 1 part of solute: greater than or equal to 10,000)”; in data set [7] (Citrate-NaOH, pH 5.0), “Practically insoluble (Practically insoluble or Insoluble: Parts of solvent required for 1 part of solute: greater than or equal to 10,000)”. In addition, the “Descriptor (solubility)” value in data set [7] (Phosphate Buffer, pH 6.9) is listed as “Practically insoluble (Practically insoluble or Insoluble: Parts of solvent required for 1 part of solute: greater than or equal to 10,000)”; in data set [7] (Phosphate-NaOH, pH 11.9) it was “Practically insoluble (Practically insoluble or Insoluble: Parts of solvent required for 1 part of solute: greater than or equal to 10,000)”; in [7] (Water, solution pH 2.2) it was “Practically insoluble (Practically insoluble or Insoluble: Parts of solvent required for 1 part of solute: greater than or equal to 10,000)”; in data set [7] (aqueous media (Table 16)) it was “practically insoluble”. Moreover, the Solubility in data set [7] (0.01N HCl, pH 2.0, 20° C.) is 0.003 g/100 mL; in data set [7] (0.1N HCl, pH 1.1, 20° C.), <0.001 g/100 mL; in data set [7] (0.1N NaOH, pH 12.9, 20° C.), <0.001 g/100 mL; in data set [7] (Borate-KCl, pH 8.9, 20° C.) it was <0.001 g/100 mL; in [7] (Citrate-HCl, pH 2.0, 20° C.), <0.001 g/100 mL; in data set [7] (Citrate-NaOH, pH 5.0, 20° C.) it was <0.001 g/100 mL. For the same compound, the Solubility in data set [7] (Phosphate Buffer, pH 6.9, 20° C.) is listed as <0.001 g/100 mL; in data set [7] (Phosphate-NaOH, pH 11.9, 20° C.), <0.001 g/100 mL; in data set [7] (Water, solution pH 2.2, 20° C.) it was 0.001 g/100 mL.

As usually defined, the solubility is the concentration that dissolves in the medium under given conditions. A lower solubility goes with little dissolved substance. As to `C[C@@H]1CCO[C@H]2Cn3cc(C(=O)NCc4ccc(F)cc4F)c(=O)c([O-])c3C(=O)N12.[Na+]` [dolutegravir sodium, sodium (4R,12aS)-9-{[(2,4-difluorophenyl)methyl]carbamoyl}-4-methyl-6,8-dioxo-3,4,6,8,12,12a-hexahydro-2H-pyrido[1′,2′:4,5]pyrazino[2,1-b][1,3]oxazin-7-olate], the “Pre-dose concentration, Mean ± Standard Deviation” value in [5] (Example 3 (Table 10), Week 4) came out at 1581.06 ± 1146.860 µg/L; in data set [5] (Example 3 (Table 10), Week 24), 1835.68 ± 1120.539 µg/L; in data set [5] (Example 3 (Table 10), Week 48), 1915.11 ± 1304.238 µg/L; in data set [5] (Example 5 (Table 13), Week 4), 1578.88 ± 1170.967 µg/L; in [5] (Example 5 (Table 13), Week 24), 1447.23 ± 917.677 µg/L; in data set [5] (Example 5 (Table 13), Week 48), 1384.36 ± 889.829 µg/L. Besides, the “Pre-dose concentration, Mean ± Standard Deviation” value in data set [6] (Example 3 (Table 10), Week 2) amounted to 821.25 ± 574.607 µg/L; in data set [6] (Example 3 (Table 10), Week 4), 994.00 ± 581.201 µg/L; in data set [6] (Example 3 (Table 10), Week 8), 1561.34 ± 1096.381 µg/L; in [6] (Example 5 (Table 13), Week 2) it was 834.58 ± 639.622 µg/L; in data set [6] (Example 5 (Table 13), Week 4), 1218.23 ± 842.703 µg/L; in data set [6] (Example 5 (Table 13), Week 8) it was 1472.50 ± 818.774 µg/L. In addition, the “Descriptor (solubility)” value in data set [8] (FaSSIF, pH 6.5, 25° C.) is “Very slightly soluble”; in [8] (FaSSIF, pH 6.5, 25° C., listed as Non-micronized dolutegravir sodium) it was “very slightly soluble”; in data set [8] (FeSSIF, pH 5.0, 25° C.) it was “Very slightly soluble”; in data set [8] (FeSSIF, pH 5.0, 25° C., listed as Non-micronized dolutegravir sodium), “very slightly soluble”; in data set [8] (SGF, pH 1.2, 25° C.), “Practically insoluble”; in data set [8] (SGF, pH 1.2, 25° C., listed as Non-micronized dolutegravir sodium), “practically insoluble”. The “Descriptor (solubility)” value in [8] (Water, solution pH 10.1, 25° C.) is on record as “Slightly soluble”; in [8] (Water, solution pH 10.1, 25° C., listed as Dolutegravir sodium), “slightly soluble”. In addition, the solubility at 8 h in data set [8] (simulated gastric fluid, thermodynamic from solid, SGF, pH 1.2, 25° C., 8 hours) is 0.021 mg/mL. Also, the solubility at 4 h in [8] (thermodynamic from solid, FaSSIF, pH 6.5, 25° C., 4 hours) came to 0.239 mg/mL; in data set [8] (thermodynamic from solid, FeSSIF, pH 5.0, 25° C., 4 hours), 0.17 mg/mL; in [8] (thermodynamic from solid, Water, solution pH 10.1, 25° C., equilibrium after 4 hours), 3.18 mg/mL.

`C#C[C@]1(O)CC[C@H]2[C@@H]3CCc4cc(O)ccc4[C@H]3CC[C@@]21C` [Ethinyl estradiol]: the “Cmin of coadministered drug, geometric mean ratio with/without EDURANT” value in data set [9] came out at 1.09. Further, in data set [3], the “AUC … geometric mean ratio with/without EDURANT” value stood at 1.14 and the “Cmax … geometric mean ratio with/without EDURANT” value was determined as 1.17. Also, in data set [1] (No Effect = 1.00), the “Cmax of coadministered drug, geometric mean ratio with/without dolutegravir” value is 0.99 and the “Cτ or C24 of coadministered drug, geometric mean ratio with/without dolutegravir” value was determined as 1.02.

Take `COC(=O)N[C@H](C(=O)N1CCC[C@H]1c1nc(-c2ccc(-c3ccc(-c4c[nH]c([C@@H]5CCCN5C(=O)[C@@H](NC(=O)OC)C(C)C)n4)cc3)cc2)c[nH]1)C(C)C` [Daclatasvir]: in data set [1] (No Effect = 1.00), the “Cmax of coadministered drug, geometric mean ratio with/without dolutegravir” value was found to be 1.03 and the “Cτ or C24 of coadministered drug, geometric mean ratio with/without dolutegravir” value worked out at 1.06.

Consider `COc1ccc2[nH]c([S+]([O-])Cc3ncc(C)c(OC)c3C)nc2c1` (stereo not drawn) [Omeprazole], for which, in data set [2], the “Rilpivirine AUC, geometric mean ratio with/without coadministered drug” value was 0.60; the “Rilpivirine Cmax, geometric mean ratio with/without coadministered drug” value amounted to 0.60; the “Rilpivirine Cmin, geometric mean ratio with/without coadministered drug” value was determined as 0.67. In data set [3], the “AUC … geometric mean ratio with/without EDURANT” value is on record as 0.86 and the “Cmax … geometric mean ratio with/without EDURANT” value came to 0.86. In addition, the “Effect on Concentration of Rilpivirine” value in [4] (concomitant drug with JULUCA) is “↓Rilpivirine”.

Take `CC(=O)Nc1ccc(O)cc1` [Acetaminophen]: in data set [2], the “Rilpivirine AUC, geometric mean ratio with/without coadministered drug” value amounted to 1.16; the “Rilpivirine Cmax, geometric mean ratio with/without coadministered drug” value came to 1.09; the “Rilpivirine Cmin, geometric mean ratio with/without coadministered drug” value is reported as 1.26. Moreover, in data set [3], the “AUC … geometric mean ratio with/without EDURANT” value came out at 0.91 and the “Cmax … geometric mean ratio with/without EDURANT” value is 0.97.
